Assay results: ChEMBL document CHEMBL1125711, “Flavins as potential antimalarials. 2. 3-Methyl-10-(substituted-phenyl) flavins” (J Med Chem, 1991)

Columns and labels:
[1] = system: Plasmodium vinckei vinckei; assay: Antimalarial activity against Plasmodium vinckei V52 on 10 mg/kg intraperitoneal dose; format: functional
[2] = system: Plasmodium vinckei vinckei; assay: Increase in mean survival days of Plasmodium inoculated mice (Mus musculus) after 70 mg/Kg intraperitoneal dose; format: functional
[3] = system: Plasmodium vinckei vinckei; assay: Antimalarial activity against Plasmodium vinckei V52 on 30 mg/kg intraperitoneal dose; format: functional
[4] = system: Mus musculus; assay: Increase in mean survival days was determined in mice after ip administration of 50 mg/kg; format: functional; settings: route intraperitoneal
[5] = system: Mus musculus; assay: Increase in mean survival days was determined in mice after ip administration of 30 mg/kg; format: functional; settings: route intraperitoneal
[6] = system: Mus musculus; assay: Increase in mean survival days was determined in mice after ip administration of 60 mg/kg; format: functional; settings: route intraperitoneal
[7] = system: Mus musculus; assay: Antimalarial activity was evaluated against Plasmodium vinckei V52 after intraperitoneal administration at dose 50 mg/kg; format: functional
[8] = system: Mus musculus; assay: Antimalarial activity was evaluated against Plasmodium vinckei V52 after intraperitoneal administration at dose 60 mg/kg; format: functional
[9] = species: Mus musculus; assay: Effective dose required to obtain a parasitaemia of 40% 48 hours after treatment in mice.; format: functional
[10] = system: Mus musculus; assay: Increase in mean survival days was determined in mice after ip administration of 10 mg/kg; format: functional; settings: route intraperitoneal
[11] = system: Plasmodium vinckei vinckei; assay: Antimalarial activity against Plasmodium vinckei V52 on 70 mg/kg intraperitoneal dose; format: functional
[12] = system: Mus musculus; assay: Antimalarial activity was evaluated against Plasmodium vinckei V52 after intraperitoneal administration at dose 20 mg/kg; format: functional
[13] = system: Mus musculus; assay: Antimalarial activity was evaluated against Plasmodium vinckei vinckei V52 after intraperitoneal administration at dose 70 mg/kg; format: functional
[14] = system: Mus musculus; assay: Increase in mean survival days was determined in mice after ip administration of 20 mg/kg; format: functional; settings: route intraperitoneal
[15] = system: Mus musculus; assay: Antimalarial activity was evaluated against Plasmodium vinckei vinckei V52 after intraperitoneal administration at dose 50 mg/kg; format: functional
[16] = system: Mus musculus; assay: Antimalarial activity was evaluated against Plasmodium vinckei V52 after intraperitoneal administration at dose 30 mg/kg; format: functional
[17] = system: Mus musculus; assay: Antimalarial activity was evaluated against Plasmodium vinckei vinckei V52 after intraperitoneal administration at dose 10 mg/kg; format: functional
[18] = system: Mus musculus; assay: (§1) Increase in mean survival days was determined in mice after ip administration of 70 mg/kg; toxic; format: functional; settings: route intraperitoneal
[19] = system: Mus musculus; assay: Increase in mean survival days was determined in mice after ip administration of 40 mg/kg; toxic; format: functional; settings: route intraperitoneal
[20] = system: Plasmodium vinckei vinckei; assay: Antimalarial activity against Plasmodium vinckei V52 after 30 mg/kg intraperitoneal dose
[21] = system: Mus musculus; assay: Increase in mean survival days was determined in mice after ip administration of 50 mg/kg; toxic; format: functional; settings: route intraperitoneal
[22] = system: Mus musculus; assay: Antimalarial activity was evaluated against Plasmodium vinckei vinckei V52 after intraperitoneal administration at dose 40 mg/kg; format: functional
[23] = system: Mus musculus; assay: Antimalarial activity was evaluated against Plasmodium vinckei V52 after intraperitoneal administration at dose 70 mg/kg; format: functional
[24] = system: Mus musculus; assay: Antimalarial activity was evaluated against Plasmodium vinckei V52 after intraperitoneal administration at dose 10 mg/kg; format: functional
[25] = system: Mus musculus; assay: Antimalarial activity was evaluated against Plasmodium vinckei vinckeii V52 after intraperitoneal administration at dose 50 mg/kg; format: functional
[26] = system: Plasmodium vinckei vinckei; assay: Antimalarial activity against Plasmodium vinckei V52 after 20 mg/kg intraperitoneal dose; format: functional
[27] = system: Mus musculus; assay: Increase in mean survival days was determined in mice after ip administration of 20 mg/kg; toxic; format: functional; settings: route intraperitoneal
[28] = system: Mus musculus; assay: Antimalarial activity was evaluated against Plasmodium vinckei vinckei V52 after intraperitoneal administration at dose 25 mg/kg; format: functional
[29] = system: Mus musculus; assay: Increase in mean survival days was determined in mice after ip administration of 25 mg/kg; toxic; format: functional; settings: route intraperitoneal
[30] = system: Mus musculus; assay: Antimalarial activity was evaluated against Plasmodium vinckei V52 after intraperitoneal administration at dose 40 mg/kg; format: functional
[31] = system: Mus musculus; assay: as §1; format: ADME, organism-based; design: dose 70 mg/kg, route intraperitoneal; settings: in vivo
[32] = system: Mus musculus; assay: Increase in mean survival days was determined in mice after ip administration of 40 mg/kg; format: functional; settings: route intraperitoneal
[33] = species: Mus musculus; assay: Effective dose required to obtain a parasitaemia of 40% 48 hours after treatment in mice; format: functional
[34] = system: Mus musculus; assay: Increase in mean survival days was determined in mice after ip administration of 15 mg/kg; format: functional; settings: route intraperitoneal
[35] = system: Mus musculus; assay: Antimalarial activity was evaluated against Plasmodium vinckei V52 after intraperitoneal administration at dose 15 mg/kg; format: functional
[36] = system: Mus musculus; assay: Antimalarial activity was evaluated against Plasmodium vinckei vinckei V52 after intraperitoneal administration at dose 50 mg/kg.; format: functional
[37] = system: Mus musculus; assay: Antimalarial activity was evaluated against Plasmodium vinckei V52 after intraperitoneal administration at dose 25 mg/kg; format: functional
[38] = system: Mus musculus; assay: Antimalarial activity was evaluated against Plasmodium vinckei vinckeii V52 after intraperitoneal administration at dose 40 mg/kg; format: functional
[39] = system: Mus musculus; assay: Increase in mean survival days was determined in mice after ip administration of 30 mg/kg; toxic; format: functional; settings: route intraperitoneal
[40] = system: Mus musculus; assay: Antimalarial activity was evaluated against Plasmodium vinckei vinckei V52 after intraperitoneal administration at dose 30 mg/kg; format: functional
[41] = system: Mus musculus; assay: Antimalarial activity was evaluated against Plasmodium vinckei vinckei V52 after intraperitoneal administration at dose 40 mg/kg.; format: functional
[42] = system: Mus musculus; assay: Antimalarial activity was evaluated against Plasmodium vinckei vinckeii V52 after intraperitoneal administration at dose 60 mg/kg; format: functional
[43] = system: Mus musculus; assay: Antimalarial activity was evaluated against Plasmodium vinckei vinckei V52 after intraperitoneal administration at dose 60 mg/kg; format: functional
[44] = system: Mus musculus; assay: Antimalarial activity was evaluated against Plasmodium vinckei vinckeii V52 after intraperitoneal administration at dose 15 mg/kg; format: functional
[45] = system: Mus musculus; assay: Antimalarial activity was evaluated against Plasmodium vinckei vinckeii V52 after intraperitoneal administration at dose 25 mg/kg; format: functional
[46] = system: Plasmodium vinckei vinckei; assay: Antimalarial activity against Plasmodium vinckei vinckeii V52 at 15 mg/kg intraperitoneally dose; format: functional; settings: route intraperitoneal
[47] = system: Plasmodium vinckei vinckei; assay: Antimalarial activity against Plasmodium vinckei vinckeii V52 after 10 mg/kg intraperitoneally dose; format: functional; settings: route intraperitoneal
[48] = system: Plasmodium vinckei vinckei; assay: Antimalarial activity against Plasmodium vinckei vinckeii V52 at 20 mg/kg intraperitoneally dose; format: functional; settings: route intraperitoneal
[49] = system: Mus musculus; assay: Increase in mean survival days was determined in mice after ip administration of 60 mg/kg; toxic; format: functional; settings: route intraperitoneal

| Structure (SMILES) | Cured [1] [%] | Cured [3] [%] | Mean survival days [4] [days] | Mean survival days [5] [days] | Mean survival days [6] [days] | Mean survival days [10] [days] | Cured [11] [%] | Cured [15] [%] | Cured [23] [%] | Cured [26] [%] | ED40 [33] [µmol/kg] | further results |
| --- | --- | --- | --- | --- | --- | --- | --- | --- | --- | --- | --- | --- |
| Cn1c(=O)nc2n(-c3ccccc3)c3ccccc3nc-2c1=O | 0 | 0 | 0.3 | 0 | 0.5 | 0 | 60 |  |  |  |  | Mean survival days [2]: 1 days; Cured [7]: 0%; Cured [8]: 20%; ED40 [9]: 248 nM/kg |
| Cc1ccc(-n2c3nc(=O)n(C)c(=O)c-3nc3ccccc32)cc1C |  |  | 0.3 | 0.8 | 0.5 | 0.3 |  | 20 |  |  |  | Cured [12]: 0%; Cured [13]: 100%; Mean survival days [14]: 0.2 days; Cured [16]: 0%; Cured [17]: 0%; Cured [8]: 60%; ED40 [9]: 210 µmol/kg |
| Cc1ccc(-n2c3nc(=O)n(C)c(=O)c-3nc3ccccc32)c(C)c1 | 0 |  |  | 1.3 |  | 0.4 | 0 | 0 |  |  |  | Mean survival days [18]: -2 days; Mean survival days [19]: -1.7 days; Cured [20]: 20%; Mean survival days [21]: -2 days; Cured [22]: 40% |
| Cn1c(=O)nc2n(-c3cc(C(F)(F)F)cc(C(F)(F)F)c3)c3ccccc3nc-2c1=O |  |  | 0 | 0 |  | 0 |  |  | 0 |  |  | Cured [12]: 0%; Mean survival days [14]: 0 days; Mean survival days [2]: 0 days; Cured [16]: 0%; Cured [24]: 0%; Cured [25]: 0% |
| CCc1ccccc1-n1c2nc(=O)n(C)c(=O)c-2nc2ccccc21 | 0 |  |  |  |  | 0 |  |  |  | 0 |  | Mean survival days [27]: -2 days; Cured [28]: 0%; Mean survival days [29]: -2 days |
| COc1ccc(-n2c3nc(=O)n(C)c(=O)c-3nc3ccccc32)cc1 | 0 |  | 2 | 0.4 | 1 | 0 | 60 |  |  | 0 | 138 | Cured [30]: 20%; Mean survival days [31]: -0.5 days; Mean survival days [32]: 1 days; Cured [7]: 80%; Cured [8]: 80% |
| Cn1c(=O)nc2n(-c3ccc(Cl)cc3)c3ccccc3nc-2c1=O | 20 | 100 |  |  |  | 0.3 | 0 |  |  | 100 | 38.8 | Mean survival days [34]: 4 days; Mean survival days [18]: -1 days; Cured [35]: 80%; Cured [36]: 20%; Cured [37]: 100%; Mean survival days [21]: -0.8 days; Cured [38]: 100% |
| Cc1ccccc1-n1c2nc(=O)n(C)c(=O)c-2nc2ccccc21 | 0 | 0 |  |  |  | -0.2 |  |  |  | 0 |  | Mean survival days [39]: -2 days; Mean survival days [27]: -1 days |
| Cc1cc(Cl)cc(-n2c3nc(=O)n(C)c(=O)c-3nc3ccccc32)c1 | 0 |  |  |  |  | 0.2 | 100 | 100 |  |  | 85.7 | Cured [12]: 80%; Mean survival days [34]: 0.5 days; Mean survival days [14]: 1 days; Cured [40]: 100%; Cured [35]: 60%; Cured [28]: 100%; Cured [22]: 100% |
| Cc1cc(-n2c3nc(=O)n(C)c(=O)c-3nc3ccccc32)ccc1Cl | 0 |  | 0.3 | 0 |  | 0 | 80 |  |  | 0 | 182 | Mean survival days [2]: 2 days; Cured [30]: 0%; Mean survival days [32]: 0.3 days; Cured [7]: 25%; Cured [8]: 100% |
| Cn1c(=O)nc2n(-c3ccc(F)cc3)c3ccccc3nc-2c1=O | 0 | 80 | -0.5 | 0 |  | 0 | 0 |  |  | 0 | 103 | Mean survival days [34]: 0 days; Mean survival days [14]: 13.4 days; Mean survival days [18]: -0.6 days; Cured [35]: 0%; Cured [41]: 80%; Mean survival days [32]: 0 days; Cured [7]: 20% |
| Cn1c(=O)nc2n(-c3cccc([N+](=O)[O-])c3)c3ccccc3nc-2c1=O |  |  |  |  | 1 |  |  |  | 0 |  |  | Cured [42]: 0%; Mean survival days [2]: -0.5 days; Cured [16]: 0%; Cured [24]: 0% |
| Cn1c(=O)nc2n(-c3cccc(C(F)(F)F)c3)c3ccccc3nc-2c1=O | 33 | 100 |  |  | 10 | 1.4 |  | 100 | 0 | 100 | 79.3 | Mean survival days [18]: 7.5 days; Cured [35]: 100%; Cured [28]: 100%; Cured [43]: 40%; Cured [22]: 100% |
| Cn1c(=O)nc2n(-c3cccc(Br)c3)c3ccccc3nc-2c1=O |  |  | 1 | 0 | -1 | 0 |  |  | 100 |  |  | Mean survival days [34]: 0 days; Cured [44]: 0%; Cured [42]: 80%; Cured [16]: 0%; Cured [38]: 0%; Cured [24]: 0%; Mean survival days [32]: 0 days; Cured [25]: 80% |
| Cn1c(=O)nc2n(-c3ccc(S(C)(=O)=O)cc3)c3ccccc3nc-2c1=O | 0 | 0 |  | 0.2 |  | 0 | 0 |  |  |  |  | Mean survival days [18]: -2 days; Cured [30]: 0%; Mean survival days [21]: -0.8 days; Mean survival days [32]: -0.5 days; Cured [7]: 0% |
| Cn1c(=O)nc2n(-c3cc(Cl)ccc3Cl)c3ccccc3nc-2c1=O | 0 | 0 |  | 0 |  | 0 |  |  | 0 |  |  | Mean survival days [31]: -0.6 days |
| Cn1c(=O)nc2n(-c3ccc(Br)cc3)c3ccccc3nc-2c1=O |  |  |  |  |  |  |  |  | 0 |  | 38.4 | Cured [45]: 100%; Cured [46]: 100%; Cured [16]: 100%; Cured [25]: 40%; Cured [47]: 0%; Cured [48]: 100% |
| Cc1cc(C)cc(-n2c3nc(=O)n(C)c(=O)c-3nc3ccccc32)c1 | 0 |  | 5.5 |  |  | 0 |  | 60 |  |  | 105 | Cured [12]: 100%; Mean survival days [34]: 1 days; Cured [40]: 100%; Cured [35]: 60%; Cured [28]: 100%; Cured [43]: 0%; Cured [22]: 100%; Mean survival days [49]: 0.4 days |
| COc1cc(OC)cc(-n2c3nc(=O)n(C)c(=O)c-3nc3ccccc32)c1 | 0 |  | 0 | 0 | 3 | 0 | 100 | 0 |  | 0 | 219 | Cured [43]: 20% |
